Laboratory results: PMC12430364, “Characterization of Human Recombinant β1,4-GalNAc-Transferase B4GALNT1 and Inhibition by Selected Compounds” (Molecules, 2025)
pIC50: −log10 of the molar value.

What was measured:
Format in all cases: biochemical
[1] = biological target: T1, β1,4-N-acetylgalactosaminyltransferase 1 (B4GALNT1, GM2 synthase) (Homo sapiens, UniProt Q00973); test: % inhibition at […], radiolabeled GalNAc transfer assay, purified enzyme
T1 construct: soluble His8-tagged, amino acids 1–25 deleted
T1 sequence (Q00973 26-533): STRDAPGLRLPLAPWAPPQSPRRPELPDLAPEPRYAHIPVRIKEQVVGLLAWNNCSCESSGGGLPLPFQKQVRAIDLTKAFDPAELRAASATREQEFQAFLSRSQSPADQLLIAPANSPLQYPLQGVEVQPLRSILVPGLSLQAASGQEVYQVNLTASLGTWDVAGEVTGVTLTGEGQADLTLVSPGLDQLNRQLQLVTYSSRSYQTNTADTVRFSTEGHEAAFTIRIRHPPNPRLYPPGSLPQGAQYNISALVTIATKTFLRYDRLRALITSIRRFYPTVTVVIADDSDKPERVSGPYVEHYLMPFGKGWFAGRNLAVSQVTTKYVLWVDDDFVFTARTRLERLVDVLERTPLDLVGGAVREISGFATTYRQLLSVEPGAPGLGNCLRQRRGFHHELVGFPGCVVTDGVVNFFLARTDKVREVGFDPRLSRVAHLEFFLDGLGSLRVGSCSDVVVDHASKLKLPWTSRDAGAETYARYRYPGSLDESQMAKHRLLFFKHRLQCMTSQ

[2] = biological target: T1, β1,4-N-acetylgalactosaminyltransferase 1 (B4GALNT1, GM2 synthase); test: radiolabeled UDP-[3H]GalNAc transfer to GM3, purified enzyme; […] inhibition at […] and IC50
[3] = biological target: T1, β1,4-N-acetylgalactosaminyltransferase 1 (B4GALNT1, GM2 synthase); test: radiolabeled GalNAc transfer assay, purified enzyme, apparent KM

With `CCCC(=O)N[C@@H]1[C@@H](O)[C@H](O)[C@@H](CO)O[C@H]1Sc1ccc2ccccc2c1` [compound 612, 2-naphthyl 2-butanamido-2-deoxy-1-thio-β-D-glucopyranoside] as the compound, how does the inhibition at 1000 µM [1] read?
Its inhibition at 1000 µM is 44%.

How did the pIC50 [2] turn out when `CCCCCCCCCCC[n+]1ccn(CCCCCCn2cc[n+](CCCCCCCCCCC)c2)c1` [QT163] was run?
Its pIC50 is 3.70.

With GM3 as the compound, how does the Km [3] read?
The Km was 500 µM.
